Biological target: Polθ protein (amino acids 2-2590) (Homo sapiens, UniProt O75417)
Test: Polθ full length enzyme potency assay (PicoGreen)
Conditions: Polθ IC50 (nM), full length N-His, C-term FLAG tagged Polθ, PicoGreen fluorescence, 12 point concentration response

Sequence of Polθ protein (amino acids 2-2590) (O75417 2-2590): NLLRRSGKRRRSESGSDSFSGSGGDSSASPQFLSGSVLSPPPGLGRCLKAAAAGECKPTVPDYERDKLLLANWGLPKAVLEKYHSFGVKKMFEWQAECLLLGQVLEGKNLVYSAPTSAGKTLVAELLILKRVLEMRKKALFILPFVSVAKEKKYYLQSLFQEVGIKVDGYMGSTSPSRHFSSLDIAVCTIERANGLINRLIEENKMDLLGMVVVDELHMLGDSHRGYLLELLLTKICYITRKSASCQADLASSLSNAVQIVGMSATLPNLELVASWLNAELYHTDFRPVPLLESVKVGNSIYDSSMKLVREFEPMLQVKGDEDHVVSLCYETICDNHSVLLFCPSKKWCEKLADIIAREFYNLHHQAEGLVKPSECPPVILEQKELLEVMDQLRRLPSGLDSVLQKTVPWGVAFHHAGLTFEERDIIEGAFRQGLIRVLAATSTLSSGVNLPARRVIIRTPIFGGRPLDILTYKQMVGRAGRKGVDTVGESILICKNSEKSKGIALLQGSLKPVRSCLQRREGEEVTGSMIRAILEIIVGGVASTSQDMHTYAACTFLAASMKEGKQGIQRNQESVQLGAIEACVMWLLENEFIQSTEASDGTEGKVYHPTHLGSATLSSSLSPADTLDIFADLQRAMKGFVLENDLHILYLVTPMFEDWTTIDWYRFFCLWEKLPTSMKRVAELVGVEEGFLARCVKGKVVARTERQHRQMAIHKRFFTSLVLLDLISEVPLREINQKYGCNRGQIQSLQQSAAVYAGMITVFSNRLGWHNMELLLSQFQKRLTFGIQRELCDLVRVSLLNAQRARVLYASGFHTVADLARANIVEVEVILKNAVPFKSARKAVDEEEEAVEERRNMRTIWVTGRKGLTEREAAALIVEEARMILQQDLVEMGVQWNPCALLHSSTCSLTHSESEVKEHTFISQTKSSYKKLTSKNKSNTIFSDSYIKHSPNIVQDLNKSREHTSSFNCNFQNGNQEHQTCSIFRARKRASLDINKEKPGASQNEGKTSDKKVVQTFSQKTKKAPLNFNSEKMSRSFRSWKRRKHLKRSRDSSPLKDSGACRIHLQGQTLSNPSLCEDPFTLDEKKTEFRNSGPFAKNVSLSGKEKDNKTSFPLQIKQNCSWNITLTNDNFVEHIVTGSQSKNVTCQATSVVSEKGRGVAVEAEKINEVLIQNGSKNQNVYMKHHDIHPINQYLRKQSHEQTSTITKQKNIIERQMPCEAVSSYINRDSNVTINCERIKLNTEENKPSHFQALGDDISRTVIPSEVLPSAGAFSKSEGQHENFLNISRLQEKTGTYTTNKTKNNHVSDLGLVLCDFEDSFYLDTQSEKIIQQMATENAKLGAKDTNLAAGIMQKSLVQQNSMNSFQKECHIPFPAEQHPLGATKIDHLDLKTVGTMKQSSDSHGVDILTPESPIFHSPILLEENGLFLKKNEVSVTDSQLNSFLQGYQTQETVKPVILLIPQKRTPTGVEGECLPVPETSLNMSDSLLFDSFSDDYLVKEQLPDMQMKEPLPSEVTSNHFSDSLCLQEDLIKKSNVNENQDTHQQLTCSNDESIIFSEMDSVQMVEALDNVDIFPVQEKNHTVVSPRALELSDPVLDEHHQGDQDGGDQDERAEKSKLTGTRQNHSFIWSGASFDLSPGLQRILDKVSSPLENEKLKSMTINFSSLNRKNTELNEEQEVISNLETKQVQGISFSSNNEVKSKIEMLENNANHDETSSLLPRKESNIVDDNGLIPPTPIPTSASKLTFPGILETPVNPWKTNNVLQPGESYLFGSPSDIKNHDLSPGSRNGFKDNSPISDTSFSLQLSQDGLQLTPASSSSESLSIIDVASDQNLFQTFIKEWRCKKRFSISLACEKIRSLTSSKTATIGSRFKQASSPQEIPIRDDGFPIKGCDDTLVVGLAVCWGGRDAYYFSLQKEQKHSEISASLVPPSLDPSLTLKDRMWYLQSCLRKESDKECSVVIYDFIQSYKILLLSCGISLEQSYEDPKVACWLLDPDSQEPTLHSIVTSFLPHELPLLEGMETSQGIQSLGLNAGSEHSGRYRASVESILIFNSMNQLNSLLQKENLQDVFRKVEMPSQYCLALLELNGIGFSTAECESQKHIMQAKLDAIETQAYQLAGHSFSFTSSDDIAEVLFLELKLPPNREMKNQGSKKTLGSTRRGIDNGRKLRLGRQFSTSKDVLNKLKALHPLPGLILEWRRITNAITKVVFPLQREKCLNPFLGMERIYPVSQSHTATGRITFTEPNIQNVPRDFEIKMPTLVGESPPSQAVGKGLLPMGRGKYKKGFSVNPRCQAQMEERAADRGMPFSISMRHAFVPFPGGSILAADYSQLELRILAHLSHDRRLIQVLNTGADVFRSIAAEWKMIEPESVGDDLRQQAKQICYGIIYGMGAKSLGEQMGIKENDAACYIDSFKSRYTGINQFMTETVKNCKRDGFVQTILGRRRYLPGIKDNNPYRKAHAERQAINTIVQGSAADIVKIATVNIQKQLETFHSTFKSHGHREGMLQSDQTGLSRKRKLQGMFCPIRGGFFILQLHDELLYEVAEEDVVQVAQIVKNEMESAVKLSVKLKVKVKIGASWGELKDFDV

IC50 [nM]	Compound
46	C=Cc1cc(C(F)(F)F)cc(N2C(=O)OC[C@H]2C(=O)N(C)c2ccc(F)c(Cl)c2)n1 [Example 114, (S)—N-(3-Chloro-4-fluorophenyl)-N-methyl-2-oxo-3-(4-(trifluoromethyl)-6-vinylpyridin-2-yl)oxazolidine-4-carboxamide]
54	CCc1cc(C(F)(F)F)cc(N2C(=O)OC[C@H]2C(=O)N(C)c2ccc(F)c(Cl)c2)n1 [Example 115, (S)—N-(3-Chloro-4-fluorophenyl)-3-(6-ethyl-4-(trifluoromethyl)pyridin-2-yl)-N-methyl-2-oxooxazolidine-4-carboxamide]
71	Cc1cc(Br)cc(N2C(=O)OC[C@H]2C(=O)N(C)c2ccc(F)c(Cl)c2)n1 [Example 116, (S)-3-(4-Bromo-6-methylpyridin-2-yl)-N-(3-chloro-4-fluorophenyl)-N-methyl-2-oxooxazolidine-4-carboxamide]
61	C=C(C)c1cc(C)nc(N2C(=O)OC[C@H]2C(=O)N(C)c2ccc(F)c(Cl)c2)c1 [Example 117, (S)—N-(3-Chloro-4-fluorophenyl)-N-methyl-3-(6-methyl-4-(prop-1-en-2-yl)pyridin-2-yl)-2-oxooxazolidine-4-carboxamide]
25	Cc1cc(C(C)C)cc(N2C(=O)OC[C@H]2C(=O)N(C)c2ccc(F)c(Cl)c2)n1 [Example 118, (S)—N-(3-Chloro-4-fluorophenyl)-3-(4-isopropyl-6-methylpyridin-2-yl)-N-methyl-2-oxooxazolidine-4-carboxamide]
39	CCc1cc(C)nc(N2C(=O)OC[C@H]2C(=O)N(C)c2ccc(F)c(Cl)c2)c1 [Example 119, (S)—N-(3-Chloro-4-fluorophenyl)-3-(4-ethyl-6-methylpyridin-2-yl)-N-methyl-2-oxooxazolidine-4-carboxamide]
94	CN(C(=O)[C@@H]1COC(=O)N1c1cc(OC(F)F)cc(Cl)n1)c1ccc(F)c(Cl)c1 [Example 120, (S)-3-(6-Chloro-4-(difluoromethoxy)pyridin-2-yl)-N-(3-chloro-4-fluorophenyl)-N-methyl-2-oxooxazolidine-4-carboxamide]
167	Cc1cc(OC(F)F)cc(N2C(=O)OC[C@H]2C(=O)N(C)c2ccc(F)c(Cl)c2)n1 [Example 121, (S)—N-(3-Chloro-4-fluorophenyl)-3-(4-(difluoromethoxy)-6-methylpyridin-2-yl)-N-methyl-2-oxooxazolidine-4-carboxamide]
41	CN(C(=O)[C@@H]1COC(=O)N1c1cc(C(C)(C)C)cc(Cl)n1)c1ccc(F)c(Cl)c1 [Example 122, (S)-3-(4-(tert-Butyl)-6-chloropyridin-2-yl)-N-(3-chloro-4-fluorophenyl)-N-methyl-2-oxooxazolidine-4-carboxamide]
36	Cc1cc(C(C)(C)C)cc(N2C(=O)OC[C@H]2C(=O)N(C)c2ccc(F)c(Cl)c2)n1 [Example 123, (S)-3-(4-(tert-Butyl)-6-methylpyridin-2-yl)-N-(3-chloro-4-fluorophenyl)-N-methyl-2-oxooxazolidine-4-carboxamide]
304	Cc1cc(C(C)C(F)(F)F)cc(N2C(=O)OC[C@H]2C(=O)N(C)c2ccc(F)c(Cl)c2)n1 (stereo partly drawn) [Example 124, (4S)—N-(3-Chloro-4-fluorophenyl)-N-methyl-3-(6-methyl-4-(1,1,1-trifiuoropropan-2-yl)pyridin-2-yl)-2-oxooxazolidine-4-carboxamide]

Further lines, the molecule ahead of its results:

Compound	IC50 [nM]
COc1cc(N(C)C(=O)[C@@H]2COC(=O)N2c2cc(C(F)(F)F)cc(C)n2)ccc1C [Example 92, (S)-N-(3-Methoxy-4-methylphenyl)-N-methyl-3-(6-methyl-4-(trifluoromethyl)pyridin-2-yl)-2-oxooxazolidine-4-carboxamide]	18
Cc1cc(C(F)(F)F)cc(N2C(=O)OC[C@H]2C(=O)N(C)c2ccc(F)c(Br)c2)n1 [Example 93, (S)-N-(3-Bromo-4-fluorophenyl)-N-methyl-3-(6-methyl-4-(trifluoromethyl)pyridin-2-yl)-2-oxooxazolidine-4-carboxamide]	16
Cc1cc(C(F)(F)F)cc(N2C(=O)OC[C@H]2C(=O)N(C)c2ccc(Br)cc2F)n1 [Example 94, (S)-N-(4-Bromo-2-fluorophenyl)-N-methyl-3-(6-methyl-4-(trifluoromethyl)pyridin-2-yl)-2-oxooxazolidine-4-carboxamide]	12
Cc1cc(C(F)(F)F)cc(N2C(=O)OC[C@H]2C(=O)N(C)c2ccc(Cl)cc2F)n1 [Example 97, (S)-N-(4-Chloro-2-fluorophenyl)-N-methyl-3-(6-methyl-4-(trifluoromethyl)pyridin-2-yl)-2-oxooxazolidine-4-carboxamide]	11
Cc1cc(C(F)(F)F)cc(N2C(=O)OC[C@H]2C(=O)N(C)c2ccc(F)c(C)c2F)n1 [Example 100, (S)-N-(2,4-Difluoro-3-methylphenyl)-N-methyl-3-(6-methyl-4-(trifluoromethyl)pyridin-2-yl)-2-oxooxazolidine-4-carboxamide]	4
Cc1cc(C(F)(F)F)cc(N2C(=O)OC[C@H]2C(=O)N(C)c2ccc(Cl)c(F)c2F)n1 [Example 101, (S)-N-(4-Chloro-2,3-difluorophenyl)-N-methyl-3-(6-methyl-4-(trifluoromethyl)pyridin-2-yl)-2-oxooxazolidine-4-carboxamide]	23
Cc1cc(C(F)(F)F)cc(N2C(=O)OC[C@H]2C(=O)N(C)c2ccc3c(c2)COC3)n1 [Example 102, (S)-N-(1,3-Dihydroisobenzofuran-5-yl)-N-methyl-3-(6-methyl-4-(trifluoromethyl)pyridin-2-yl)-2-oxooxazolidine-4-carboxamide]	86
Cc1cc(C(F)(F)F)cc(N2C(=O)OC[C@H]2C(=O)N(C)c2ccc(C)c(O)c2)n1 [Example 105, (S)—N-(3-Hydroxy-4-methylphenyl)-N-methyl-3-(6-methyl-4-(trifluoromethyl)pyridin-2-yl)-2-oxooxazolidine-4-carboxamide]	19
Cc1cc(C(F)(F)F)cc(N2C(=O)OC[C@H]2C(=O)N(C)c2ccc(F)c(O)c2)n1 [Example 106, (S)—N-(4-Fluoro-3-hydroxyphenyl)-N-methyl-3-(6-methyl-4-(trifluoromethyl)pyridin-2-yl)-2-oxooxazolidine-4-carboxamide]	324
C=Cc1c(F)ccc(N(C)C(=O)[C@@H]2COC(=O)N2c2cc(C(F)(F)F)cc(C)n2)c1F [Example 107, (S)—N-(2,4-Difluoro-3-vinylphenyl)-N-methyl-3-(6-methyl-4-(trifluoromethyl)pyridin-2-yl)-2-oxooxazolidine-4-carboxamide]	18
CCc1c(F)ccc(N(C)C(=O)[C@@H]2COC(=O)N2c2cc(C(F)(F)F)cc(C)n2)c1F [Example 108, (S)—N-(3-Ethyl-2,4-difluorophenyl)-N-methyl-3-(6-methyl-4-(trifluoromethyl)pyridin-2-yl)-2-oxooxazolidine-4-carboxamide]	12
C=Cc1cc(N(C)C(=O)[C@@H]2COC(=O)N2c2cc(C(F)(F)F)cc(C)n2)ccc1F [Example 109, (S)—N-(4-Fluoro-3-vinylphenyl)-N-methyl-3-(6-methyl-4-(trifluoromethyl)pyridin-2-yl)-2-oxooxazolidine-4-carboxamide]	49
CCc1cc(N(C)C(=O)[C@@H]2COC(=O)N2c2cc(C(F)(F)F)cc(C)n2)ccc1F [Example 110, (S)—N-(3-Ethyl-4-fluorophenyl)-N-methyl-3-(6-methyl-4-(trifluoromethyl)pyridin-2-yl)-2-oxo-oxazolidine-4-carboxamide]	21
C=Cc1ccc(N(C)C(=O)[C@@H]2COC(=O)N2c2cc(C(F)(F)F)cc(C)n2)c(F)c1 [Example 111, (S)—N-(2-Fluoro-4-vinylphenyl)-N-methyl-3-(6-methyl-4-(trifluoromethyl)pyridin-2-yl)-2-oxooxazolidine-4-carboxamide]	18
CCc1ccc(N(C)C(=O)[C@@H]2COC(=O)N2c2cc(C(F)(F)F)cc(C)n2)c(F)c1 [Example 112, (S)—N-(4-Ethyl-2-fluorophenyl)-N-methyl-3-(6-methyl-4-(trifluoromethyl)pyridin-2-yl)-2-oxooxazolidine-4-carboxamide]	11
CN(C(=O)[C@@H]1COC(=O)N1c1cc(C(F)(F)F)cc(Cl)n1)c1ccc(F)c(Cl)c1 [Example 113, (S)-3-(6-Chloro-4-(trifluoromethyl)pyridin-2-yl)-N-(3-chloro-4-fluorophenyl)-N-methyl-2-oxooxazolidine-4-carboxamide]	21

Same assay, conditions: read-out: Polθ IC50; full length N-His, C-term FLAG tagged Polθ, PicoGreen fluorescence, 12 point concentration response

Compound	IC50 [nM]
Cc1cc(C(F)(F)F)cc(N2C(=O)OC[C@H]2C(=O)N(C)c2cccc(Cl)c2F)n1 [Example 95, (S)-N-(3-Chloro-2-fluorophenyl)-N-methyl-3-(6-methyl-4-(trifluoromethyl)pyridin-2-yl)-2-oxooxazolidine-4-carboxamide]	15
Cc1cc(C(F)(F)F)cc(N2C(=O)OC[C@H]2C(=O)N(C)c2cc(Cl)ccc2F)n1 [Example 96, (S)-N-(5-Chloro-2-fluorophenyl)-N-methyl-3-(6-methyl-4-(trifluoromethyl)pyridin-2-yl)-2-oxooxazolidine-4-carboxamide]	24
Cc1cc(C(F)(F)F)cc(N2C(=O)OC[C@H]2C(=O)N(C)c2cc(Cl)c(F)cc2F)n1 [Example 98, (S)-N-(5-Chloro-2,4-difluorophenyl)-N-methyl-3-(6-methyl-4-(trifluoromethyl)pyridin-2-yl)-2-oxooxazolidine-4-carboxamide]	32
CCN(C(=O)[C@@H]1COC(=O)N1c1cc(C(F)(F)F)cc(C)n1)c1ccc(F)c(Cl)c1 [Example 103, (S)-N-(3-Chloro-4-fluorophenyl)-N-ethyl-3-(6-methyl-4-(trifluoromethyl)-pyridin-2-yl)-2-oxooxazolidine-4-carboxamide]	54
Cc1cc(C(F)(F)F)cc(N2C(=O)OC[C@H]2C(=O)N(c2ccc(F)c(Cl)c2)C(C)C)n1 [Example 104, (S)-N-(3-Chloro-4-fluorophenyl)-N-isopropyl-3-(6-methyl-4-(trifluoromethyl)pyridin-2-yl)-2-oxooxazolidine-4-carboxamide]	35
